Legend:
Type in all cases: in vivo
[1] = system: Ipomoea hederacea (IPOHE); test: Herbicidal efficacy, pre-emergence application (glasshouse); settings: Ipomoea hederacea, 312 h, evaluated visually after 13 days, 100=total damage, 0=no damage, read-out: percentage phytotoxicity to the plant, IPOHE
Experimental: (§1) Seeds of a variety of test species [Ipomoea hederacea (IPOHE); Zea mays (ZEAMX); Echinochloa crus-galli (ECHCG); Setaria faberi (SETFA); Abutilon theophrasti (ABUTH); Amaranthus retroflexus (AMARE)] were sown in standard sterilised soil in pots. After cultivation for one day (pre-emergence) or after 8 days cultivation (post-emergence) under controlled conditions in a glasshouse (at 24/16° C., day/night; 14 hours light; 65% humidity), the plants were sprayed with an aqueous spray solution derived from the formulation of the technical active ingredient in acetone/water (50:50) solution containing 0.5% Tween 20 (polyoxyethelyene sorbitan monolaurate, CAS RN 9005-64-5), subsequently diluted in water, and sprayed to give the stated application rate.
(§2) The test plants were then grown under controlled conditions in a glasshouse (at 24/16° C., day/night; 14 hours light; 65% humidity) and watered twice daily.
(§3) After 13 days for pre and post-emergence, the test was evaluated visually for percentage phytotoxicity to the plant (where 100=total damage to plant; 0=no damage to plant).

[2] = system: Amaranthus retroflexus (AMARE); test: as above; settings: Amaranthus retroflexus, 312 h, evaluated visually after 13 days, 100=total damage, 0=no damage, read-out: percentage phytotoxicity to the plant, AMARE
Experimental: as §1, §2, §3

[3] = system: Zea mays (ZEAMX); test: as above; settings: Zea mays, 312 h, evaluated visually after 13 days, 100=total damage, 0=no damage, read-out: percentage phytotoxicity to the plant, ZEAMX
Experimental: as §1, §2, §3

[4] = system: Setaria faberi (SETFA); test: as above; settings: Setaria faberi, 312 h, evaluated visually after 13 days, 100=total damage, 0=no damage, read-out: percentage phytotoxicity to the plant, SETFA
Experimental: as §1, §2, §3

[5] = system: Abutilon theophrasti (ABUTH); test: as above; settings: Abutilon theophrasti, 312 h, evaluated visually after 13 days, 100=total damage, 0=no damage, read-out: percentage phytotoxicity to the plant, ABUTH
Experimental: as §1, §2, §3

[6] = system: Echinochloa crus-galli (ECHCG); test: as above; settings: Echinochloa crus-galli, 312 h, evaluated visually after 13 days, 100=total damage, 0=no damage, read-out: percentage phytotoxicity to the plant, ECHCG
Experimental: as §1, §2, §3

[7] = system: Ipomoea hederacea (IPOHE); test: Herbicidal efficacy, post-emergence application (glasshouse); settings: Ipomoea hederacea, 312 h, evaluated visually after 13 days, 100=total damage, 0=no damage, read-out: percentage phytotoxicity to the plant, IPOHE
Experimental: as §1, §2, §3

[8] = system: Amaranthus retroflexus (AMARE); test: as above; settings: Amaranthus retroflexus, 312 h, evaluated visually after 13 days, 100=total damage, 0=no damage, read-out: percentage phytotoxicity to the plant, AMARE
Experimental: as §1, §2, §3

[9] = system: Zea mays (ZEAMX); test: as above; settings: Zea mays, 312 h, evaluated visually after 13 days, 100=total damage, 0=no damage, read-out: percentage phytotoxicity to the plant, ZEAMX
Experimental: as §1, §2, §3

[10] = system: Setaria faberi (SETFA); test: as above; settings: Setaria faberi, 312 h, evaluated visually after 13 days, 100=total damage, 0=no damage, read-out: percentage phytotoxicity to the plant, SETFA
Experimental: as §1, §2, §3

[11] = system: Abutilon theophrasti (ABUTH); test: as above; settings: Abutilon theophrasti, 312 h, evaluated visually after 13 days, 100=total damage, 0=no damage, read-out: percentage phytotoxicity to the plant, ABUTH
Experimental: as §1, §2, §3

[12] = system: Echinochloa crus-galli (ECHCG); test: as above; settings: Echinochloa crus-galli, 312 h, evaluated visually after 13 days, 100=total damage, 0=no damage, read-out: percentage phytotoxicity to the plant, ECHCG
Experimental: as §1, §2, §3

Structure (SMILES) | pest or weed control at 250 g/ha [1] | pest or weed control at 250 g/ha [2] | plant injury at 250 g/ha [3] | pest or weed control at 250 g/ha [4] | pest or weed control at 250 g/ha [5] | pest or weed control at 250 g/ha [6] | pest or weed control at 250 g/ha [7] | pest or weed control at 250 g/ha [8] | plant injury at 250 g/ha [9] | pest or weed control at 250 g/ha [10] | pest or weed control at 250 g/ha [11] | pest or weed control at 250 g/ha [12]
COc1c(F)cccc1NC(=O)[C@H]1C(=O)N(C)C[C@@H]1c1cc(C(F)(F)F)n(C)n1 [Compound 2.6, (3S,4R)-N-(3-fluoro-2-methoxy-phenyl)-1-methyl-4-[1-methyl-5-(trifluoromethyl)pyrazol-3-yl]-2-oxo-pyrrolidine-3-carboxamide] | 20% | 0% | 80% | 90% | 0% | 90% | 50% | 0% | 80% | 70% | 0% | 70%
CN1C[C@H](c2cc(C(F)(F)F)n(C)n2)[C@@H](C(=O)Nc2ccc(F)c(F)c2F)C1=O [Compound 2.7, (3S,4R)-1-methyl-4-[1-methyl-5-(trifluoromethyl)pyrazol-3-yl]-2-oxo-N-(2,3,4-trifluorophenyl)pyrrolidine-3-carboxamide] | 20% | 20% | 90% | 90% | 10% | 100% | 0% | 50% | 80% | 80% | 0% | 80%
CN1C[C@H](c2cc(C(F)(F)F)n(C)n2)[C@@H](C(=O)Nc2ccc(F)nc2F)C1=O [Compound 2.8, (3S,4R)-N-(2,6-difluoro-3-pyridyl)-1-methyl-4-[1-methyl-5-(trifluoromethyl)pyrazol-3-yl]-2-oxo-pyrrolidine-3-carboxamide] | 0% | 20% | 40% | 90% | 0% | 90% | 30% | 0% | 80% | 80% | 0% | 80%
CN1C[C@H](c2cc(C(F)(F)F)n(C)n2)[C@@H](C(=O)Nc2cccc(F)n2)C1=O [Compound 2.9, (3S,4R)-N-(6-fluoro-2-pyridyl)-1-methyl-4-[1-methyl-5-(trifluoromethyl)pyrazol-3-yl]-2-oxo-pyrrolidine-3-carboxamide] | 40% | 0% | 80% | 90% | 0% | 100% | 50% | 0% | 40% | 80% | 0% | 80%
CN1C[C@H](c2cc(C(F)(F)F)n(C)n2)[C@@H](C(=O)Nc2cccc(F)c2OC(F)F)C1=O [Compound 2.10, (3S,4R)-N-[2-(difluoromethoxy)-3-fluoro-phenyl]-1-methyl-4-[1-methyl-5-(trifluoromethyl)pyrazol-3-yl]-2-oxo-pyrrolidine-3-carboxamide] | 20% | 0% | 40% | 90% | 0% | 90% | 30% | 0% | 80% | 80% | 0% | 80%
CCc1ccccc1NC(=O)[C@H]1C(=O)N(C)C[C@@H]1c1cc(C(F)(F)F)n(C)n1 [Compound 2.11, (3S,4R)-N-(2-ethylphenyl)-1-methyl-4-[1-methyl-5-(trifluoromethyl)pyrazol-3-yl]-2-oxo-pyrrolidine-3-carboxamide] | 0% | 70% | 20% | 90% | 0% | 90% | 0% | 20% | 0% | 80% | 0% | 80%

Reference: patent US11472792B2, “Herbicidal mixtures” (SYNGENTA CROP PROTECTION AG, priority 2019, dated 2022)
